Experiment [1] is described as follows: A2780 ovarian cancer cell cytotoxicity, dose response, cytotoxicity control, plate reader, dry powder samples (AID 743046). It counts as functional, cell-based.
Experiment [2] is described as follows: IOSE-T80 ovarian epithelial cell cytotoxicity, dose response, cytotoxicity control for PAX8 inhibitor project, plate reader, dry powder samples (AID 743045). The format is functional, cell-based.
Experiment [3] in a line: cytotoxicity in OVCAR8 ovarian cancer cells, dose response, PAX8 project, cell-based, plate reader, dry powder samples (AID 743197). It counts as functional. Particulars: OVCAR-8.
A short description of experiment [4]: NIH:OVCAR-3 ovarian cancer cell cytotoxicity, dose response, PAX8 inhibitor project, plate reader, dry powder samples (AID 743044). It counts as functional, cell-based.
For the next experiment, the system named is Vero. Description: Vero cell cytotoxicity, cytotoxicity control for flavivirus capping enzyme inhibitors (AID 588742). It counts as functional. The note with it: Chlorocebus sabaeus.
Experiment [5] addresses Bifunctional protein GlmU (Mycobacterium tuberculosis, UniProt P9WMN3). Nature of the experiment: Inhibitors of Mycobacterial Glucosamine-1-phosphate acetyl transferase (GlmU). Secondary screen. Further details: species or system Mycobacterium tuberculosis H37Rv.
The target in experiment [6] is T1, RNA-binding protein pos-1 (Caenorhabditis elegans, UniProt G5EF15).
T1 sequence (G5EF15 whole entry): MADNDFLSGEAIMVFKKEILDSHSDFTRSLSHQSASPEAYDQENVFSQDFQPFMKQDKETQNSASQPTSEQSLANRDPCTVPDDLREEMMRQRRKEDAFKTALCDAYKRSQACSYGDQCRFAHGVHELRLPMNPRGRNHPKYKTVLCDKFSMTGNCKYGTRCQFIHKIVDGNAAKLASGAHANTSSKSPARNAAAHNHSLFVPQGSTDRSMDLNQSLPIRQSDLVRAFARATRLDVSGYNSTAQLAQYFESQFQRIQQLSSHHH
Description: inhibitors of POS-1/mex-3 RNA binding, dose response, biochemical, fluorescence polarization (AID 1964).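 Also: purified POS-1 fused to maltose binding protein made in E. coli; potency of compounds blocking POS-1 binding to fluorescent RNA.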 On the technique in general: In fluorescence polarisation assays a small probe gives low polarisation when free and higher when bound to something large.

For experiment [7], the target named is T2, Zinc finger protein mex-5 (Caenorhabditis elegans, UniProt Q9XUB2).
T2 sequence (Q9XUB2 whole entry): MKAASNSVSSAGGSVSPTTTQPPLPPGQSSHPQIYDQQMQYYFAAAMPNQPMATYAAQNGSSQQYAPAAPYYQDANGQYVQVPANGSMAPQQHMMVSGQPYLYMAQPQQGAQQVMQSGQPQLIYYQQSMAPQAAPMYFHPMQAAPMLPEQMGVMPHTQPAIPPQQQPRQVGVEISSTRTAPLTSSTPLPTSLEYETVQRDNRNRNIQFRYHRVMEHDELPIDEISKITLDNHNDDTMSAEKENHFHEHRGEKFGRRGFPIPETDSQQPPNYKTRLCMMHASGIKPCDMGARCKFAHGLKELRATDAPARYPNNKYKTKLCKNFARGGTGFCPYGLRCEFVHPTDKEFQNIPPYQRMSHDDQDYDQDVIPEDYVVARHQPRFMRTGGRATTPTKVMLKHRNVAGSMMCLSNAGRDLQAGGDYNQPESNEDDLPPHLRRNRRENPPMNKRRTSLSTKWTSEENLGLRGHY
Nature of the experiment: MEX-5/TCR-2 RNA interaction inhibitors, dose response, biochemical, C. elegans, fluorescence polarization (AID 1960).

In another experiment the target is Genome polyprotein (dengue virus type 2, UniProt P29990). Nature of the experiment: Dengue-2 NS5 methyltransferase inhibitors, primary screen, biochemical, confirmation dose response (AID 588689). It counts as functional.
The target of experiment [8] is Induced myeloid leukemia cell differentiation protein Mcl-1 (Homo sapiens, UniProt Q07820). The format is functional.
In the next experiment the target is T3, Caspase-6 (Homo sapiens, UniProt P55212).
T3 sequence (P55212 whole entry): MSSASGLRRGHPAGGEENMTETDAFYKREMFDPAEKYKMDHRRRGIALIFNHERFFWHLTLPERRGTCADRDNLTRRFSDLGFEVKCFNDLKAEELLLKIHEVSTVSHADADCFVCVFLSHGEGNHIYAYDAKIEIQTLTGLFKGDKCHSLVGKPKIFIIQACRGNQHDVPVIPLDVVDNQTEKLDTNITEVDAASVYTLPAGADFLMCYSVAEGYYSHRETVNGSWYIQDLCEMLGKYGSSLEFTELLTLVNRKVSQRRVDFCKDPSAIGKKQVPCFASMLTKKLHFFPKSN
Description: human caspase-6 inhibitors, dose response, biochemical, VEID-R110 fluorescence, cherry-pick (AID 720632).

A short description of experiment [9]: inhibitors of Vif binding to APOBEC3G peptide, primary screen, biochemical, TR-FRET, GST-Vif 1-94, biotin-A3G peptide, dose response retest (AID 1117319).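 Also: TR-FRET signal of purified GST-Vif binding a biotinylated A3G peptide; inhibitors lower the FRET signal by blocking Vif and A3G binding.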 It counts as functional. For orientation: Time-resolved FRET reads energy transfer from a long-lived donor to a nearby acceptor.
A further experiment concerns the target Prothrombin (Homo sapiens, UniProt P00734). Nature of the experiment: Thrombin 1536 HTS Dose Response Confirmation. [Related pubchem assays: 1046 (Thrombin 1536 HTS; hits were confirmed in this assay)]. It counts as functional.
Experiment [10] is described as follows: HepG2 cell cytotoxicity, dose response, cytotoxicity control, ATP luminescence, dry powder, set 2 (AID 743129). The format is functional, cell-based.
A short description of experiment [11]: HEK293 cell cytotoxicity, dose response, cytotoxicity control, ATP luminescence, dry powder, set 3 (AID 743131). It counts as functional, cell-based.
Experiment [12] addresses E3 ubiquitin-protein ligase Mdm2 (Homo sapiens, UniProt Q00987). Description: enhancers of MDM2-luciferase reporter signal, concentration-effect titration, project on inhibitors of MDM2 ubiquitin ligase, cellular assay, luminescent readout, 384-well plate format (AID 1394).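 Also: MDM2 E3 inhibitors raise luminescence so EC50 is for signal enhancement.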 The format is functional. On the technique in general: In a reporter assay the amount or activity of a reporter protein is the signal.

Experiment [13] is described as follows: Jurkat T cell cytotoxicity, dose response, cytotoxicity control for P. falciparum gametocyte viability project, luminescence (AID 1117277).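 Also: potency reflects loss of cellular ATP meaning fewer viable cells.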 The format is functional, cell-based.
Experiment [14] is described as follows: P. falciparum late gametocyte killing, dose response, luminescence (AID 1117278).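 Also: gametocytes exposed to compound for 24 hours.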 It counts as functional, cell-based.
The target of experiment [15] is E3 ubiquitin-protein ligase UHRF1 (Homo sapiens, UniProt Q96T88). Nature of the experiment: Counterscreen for inhibitors of 5-meCpG-binding domain protein 2 (MBD2): TRFRET-based biochemical high throughput dose response assay to identify inhibitors of binding of ubiquitin-like with PHD and ring finger domains 1 (UHRF1) to methylated oligonucleotide.
A short description of experiment [16]: A375 melanoma cell cytotoxicity, dose response, counter-screen for MITF inhibitor project, CellTiter-Glo luminescence, dry powder, set 2 (AID 624489).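 Also: actives are compounds lowering A375 viability meaning general cytotoxicity.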 The format is functional, cell-based. The note with it: A-375.
Experiment [17] in a line: A375 melanoma cell viability loss, dose response, counter-screen for MITF inhibitor project, CellTiter-Glo luminescence, dry powder, set 4 (AID 624364).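 Also: A375 melanoma cells are MITF independent so this is a counter screen.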 The format is functional, cell-based. The note with it: A-375.
The target in experiment [18] is T4, Fibrinogen beta chain (Homo sapiens, UniProt P02675). Description: Fluorescence polarization-based biochemical high throughput dose response assay to identify inhibitors that disrupt the binding of a cyclic peptide (Tn6) to the fibrin proteolytic product D-Dimer and fragment E complex [DD(E )].
Experiment [19] deals with T4, Fibrinogen beta chain. Nature of the experiment: Fluorescence polarization-based biochemical high throughput dose response assay to identify inhibitors that disrupt the binding of a cyclic peptide (Tn7) to the fibrin proteolytic product D-Dimer and fragment E complex [DD(E )].
Experiment [20] concerns the target T5, Rac GTPase-activating protein 1 (Homo sapiens, UniProt Q9H0H5).
T5 sequence (Q9H0H5 whole entry): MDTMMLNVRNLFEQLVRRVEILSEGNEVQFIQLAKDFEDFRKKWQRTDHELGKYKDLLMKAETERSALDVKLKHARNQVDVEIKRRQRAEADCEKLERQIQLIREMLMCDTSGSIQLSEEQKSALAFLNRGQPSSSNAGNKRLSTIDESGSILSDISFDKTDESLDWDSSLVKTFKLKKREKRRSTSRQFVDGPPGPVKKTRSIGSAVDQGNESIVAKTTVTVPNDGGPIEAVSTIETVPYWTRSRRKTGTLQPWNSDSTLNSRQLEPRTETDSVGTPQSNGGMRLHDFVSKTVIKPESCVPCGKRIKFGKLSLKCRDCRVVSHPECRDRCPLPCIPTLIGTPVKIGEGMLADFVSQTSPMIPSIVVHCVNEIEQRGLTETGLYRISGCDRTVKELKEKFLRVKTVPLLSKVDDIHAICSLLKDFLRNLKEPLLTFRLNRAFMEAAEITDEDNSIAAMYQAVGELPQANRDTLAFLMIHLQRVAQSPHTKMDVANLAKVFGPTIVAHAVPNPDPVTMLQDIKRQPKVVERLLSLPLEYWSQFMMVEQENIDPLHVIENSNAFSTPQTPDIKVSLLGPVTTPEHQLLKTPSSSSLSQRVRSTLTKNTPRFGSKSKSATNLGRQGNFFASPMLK
Nature of the experiment: MgcRacGAP GTPase-activating activity inhibitors, confirmation, biochemical, ADP Hunter fluorescence, primary and confirmatory (AID 624330). The format is functional.

This note sets out measurements from ChEMBL document CHEMBL1201862, “PubChem BioAssay data set” (2004).

The structures appear in SMILES notation. Active and inactive are the calls of the source.

What is called AC50 is the concentration at which the activity in the assay is half-maximal. In general, CC50 refers to the concentration at which the toxic effect on the cells reaches its halfway point. What is called IC50 is the point on the concentration scale where inhibition reaches its midpoint. Usually EC50 stands for the concentration that produces a half-maximal response.

T4 sequence (P02675 whole entry, the tested form may be a part): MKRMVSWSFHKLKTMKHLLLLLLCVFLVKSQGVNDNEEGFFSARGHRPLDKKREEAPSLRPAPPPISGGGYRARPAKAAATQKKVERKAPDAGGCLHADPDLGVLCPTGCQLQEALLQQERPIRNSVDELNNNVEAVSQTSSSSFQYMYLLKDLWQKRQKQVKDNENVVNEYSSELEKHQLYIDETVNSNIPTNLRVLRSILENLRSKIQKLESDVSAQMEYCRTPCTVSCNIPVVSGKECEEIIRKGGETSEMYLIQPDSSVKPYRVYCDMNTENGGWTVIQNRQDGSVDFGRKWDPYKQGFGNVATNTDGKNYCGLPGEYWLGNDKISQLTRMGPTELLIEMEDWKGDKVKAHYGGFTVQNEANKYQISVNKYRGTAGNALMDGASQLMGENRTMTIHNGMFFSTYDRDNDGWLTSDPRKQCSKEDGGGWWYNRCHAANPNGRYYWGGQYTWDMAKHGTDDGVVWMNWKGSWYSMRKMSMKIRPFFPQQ
Sequence of Induced myeloid leukemia cell differentiation protein Mcl-1 (Q07820 whole entry): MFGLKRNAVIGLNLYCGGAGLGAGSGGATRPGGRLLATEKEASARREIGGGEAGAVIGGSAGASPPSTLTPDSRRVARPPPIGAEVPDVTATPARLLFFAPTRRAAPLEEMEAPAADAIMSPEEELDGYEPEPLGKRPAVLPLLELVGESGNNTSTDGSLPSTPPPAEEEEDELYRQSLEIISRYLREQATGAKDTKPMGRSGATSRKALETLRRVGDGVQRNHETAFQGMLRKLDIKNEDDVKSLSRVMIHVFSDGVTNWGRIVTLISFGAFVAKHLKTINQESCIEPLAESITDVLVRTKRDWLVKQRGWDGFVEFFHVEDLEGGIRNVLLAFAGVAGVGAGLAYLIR
Sequence of Bifunctional protein GlmU (P9WMN3 whole entry): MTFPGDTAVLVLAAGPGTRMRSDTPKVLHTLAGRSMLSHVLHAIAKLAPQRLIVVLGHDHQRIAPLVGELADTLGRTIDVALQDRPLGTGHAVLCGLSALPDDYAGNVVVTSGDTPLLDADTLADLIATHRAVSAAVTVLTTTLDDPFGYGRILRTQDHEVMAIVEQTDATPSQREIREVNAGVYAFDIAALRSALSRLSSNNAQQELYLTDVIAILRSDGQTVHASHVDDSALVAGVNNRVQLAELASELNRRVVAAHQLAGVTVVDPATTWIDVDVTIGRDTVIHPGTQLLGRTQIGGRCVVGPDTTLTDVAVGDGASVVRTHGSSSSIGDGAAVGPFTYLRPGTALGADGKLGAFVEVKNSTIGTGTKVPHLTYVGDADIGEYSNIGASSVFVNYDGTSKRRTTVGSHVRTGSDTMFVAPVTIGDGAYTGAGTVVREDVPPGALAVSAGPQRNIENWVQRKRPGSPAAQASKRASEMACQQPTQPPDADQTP
Sequence of E3 ubiquitin-protein ligase Mdm2 (Q00987 whole entry): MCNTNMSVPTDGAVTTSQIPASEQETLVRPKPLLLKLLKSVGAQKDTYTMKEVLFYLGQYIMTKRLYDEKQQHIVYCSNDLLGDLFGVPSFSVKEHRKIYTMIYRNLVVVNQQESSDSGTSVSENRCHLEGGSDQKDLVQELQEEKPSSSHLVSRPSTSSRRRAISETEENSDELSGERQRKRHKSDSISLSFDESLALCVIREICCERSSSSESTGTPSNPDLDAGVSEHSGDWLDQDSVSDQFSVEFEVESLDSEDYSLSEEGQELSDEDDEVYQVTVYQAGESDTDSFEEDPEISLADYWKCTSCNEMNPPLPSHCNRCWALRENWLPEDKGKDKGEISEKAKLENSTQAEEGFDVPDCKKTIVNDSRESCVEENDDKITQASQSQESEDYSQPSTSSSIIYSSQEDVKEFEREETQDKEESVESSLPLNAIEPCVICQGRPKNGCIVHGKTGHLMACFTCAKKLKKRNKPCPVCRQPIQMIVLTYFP
Sequence of Genome polyprotein (P29990 2492-3391 limits assumed): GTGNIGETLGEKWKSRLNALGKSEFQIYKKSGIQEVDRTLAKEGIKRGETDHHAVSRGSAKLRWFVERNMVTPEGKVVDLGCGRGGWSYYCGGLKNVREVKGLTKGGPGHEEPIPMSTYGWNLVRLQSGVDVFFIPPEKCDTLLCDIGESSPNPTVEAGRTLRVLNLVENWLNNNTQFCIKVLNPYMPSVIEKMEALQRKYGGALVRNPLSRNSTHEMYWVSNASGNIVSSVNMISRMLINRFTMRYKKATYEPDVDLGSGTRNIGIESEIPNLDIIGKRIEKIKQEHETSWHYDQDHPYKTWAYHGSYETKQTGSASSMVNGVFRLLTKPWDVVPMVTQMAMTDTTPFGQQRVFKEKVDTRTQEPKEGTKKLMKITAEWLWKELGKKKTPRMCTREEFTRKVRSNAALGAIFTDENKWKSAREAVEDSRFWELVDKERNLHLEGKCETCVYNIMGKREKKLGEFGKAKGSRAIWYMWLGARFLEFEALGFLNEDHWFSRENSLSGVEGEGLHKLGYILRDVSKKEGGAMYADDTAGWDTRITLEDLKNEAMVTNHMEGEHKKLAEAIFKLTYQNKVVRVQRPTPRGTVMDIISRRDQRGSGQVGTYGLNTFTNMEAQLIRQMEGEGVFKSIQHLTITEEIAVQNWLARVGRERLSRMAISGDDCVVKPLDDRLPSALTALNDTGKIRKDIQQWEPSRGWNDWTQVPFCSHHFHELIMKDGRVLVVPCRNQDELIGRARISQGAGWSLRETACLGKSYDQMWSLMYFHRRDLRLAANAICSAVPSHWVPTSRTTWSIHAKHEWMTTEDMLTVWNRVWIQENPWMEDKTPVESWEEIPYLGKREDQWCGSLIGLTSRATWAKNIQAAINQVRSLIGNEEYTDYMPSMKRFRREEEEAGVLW
Sequence of E3 ubiquitin-protein ligase UHRF1 (Q96T88 whole entry, the tested form may be a part): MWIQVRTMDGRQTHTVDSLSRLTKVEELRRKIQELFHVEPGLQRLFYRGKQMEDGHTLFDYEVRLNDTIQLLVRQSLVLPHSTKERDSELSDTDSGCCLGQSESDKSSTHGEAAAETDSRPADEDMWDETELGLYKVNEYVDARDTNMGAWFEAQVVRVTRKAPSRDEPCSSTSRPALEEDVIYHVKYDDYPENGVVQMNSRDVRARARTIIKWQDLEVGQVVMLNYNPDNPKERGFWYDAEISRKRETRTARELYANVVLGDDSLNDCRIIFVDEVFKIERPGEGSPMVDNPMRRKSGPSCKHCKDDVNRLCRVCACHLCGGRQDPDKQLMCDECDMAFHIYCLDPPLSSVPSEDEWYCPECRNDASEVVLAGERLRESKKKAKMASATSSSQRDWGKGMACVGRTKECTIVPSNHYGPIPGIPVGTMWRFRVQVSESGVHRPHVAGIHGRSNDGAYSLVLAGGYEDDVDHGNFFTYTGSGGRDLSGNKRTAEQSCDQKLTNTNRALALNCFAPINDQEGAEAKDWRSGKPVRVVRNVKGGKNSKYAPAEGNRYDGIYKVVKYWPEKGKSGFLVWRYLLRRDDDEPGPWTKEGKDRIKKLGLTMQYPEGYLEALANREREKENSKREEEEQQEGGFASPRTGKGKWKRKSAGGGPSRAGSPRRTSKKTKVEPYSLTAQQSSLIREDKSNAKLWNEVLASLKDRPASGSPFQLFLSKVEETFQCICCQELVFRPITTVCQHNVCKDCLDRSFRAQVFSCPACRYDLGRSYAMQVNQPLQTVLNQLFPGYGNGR

For the compound `O=C(Nc1ccccc1)N1CCCCN2[C@@H](CO)[C@@H](c3ccc(C#Cc4ccccc4)cc3)[C@@H]2C1`, the AC50 is 13.7 µM (active) in experiment [1], 19.3 µM (active) in experiment [2], 17.5 µM (active) in experiment [3] and 7.13 µM (active) in experiment [4].
Turning to `O=c1ccc2[n+]([O-])c3ccc(O)cc3oc-2c1`, the CC50 with Vero was > 40 µM (active). Besides, the IC50 is 59.4 µM (active) in experiment [5], 1.61 µM (active) on Genome polyprotein and 10.1 µM (not active) in experiment [8]. For the same compound, the figures for the concentration for a half-maximal effect (EC50) in experiment [6] and in [7] were > 300 µM (not active) and 37.7 µM (active), respectively. For the same compound, the AC50 on Caspase-6 was 0.285 µM (active).
Consider `COc1cc(OC)cc(C(=O)NNC(=O)c2ccccc2Br)c1`, for which the results for the IC50 (in experiment [9]; on Prothrombin) were > 100 µM (active) and > 50 µM (not active), respectively.
For `CCOC(=O)c1c(NC(=O)CNCCN(C)C)sc(C)c1-c1ccccc1`, the figures for the AC50 in experiment [10] and in [11] were > 52 µM (inactive) and 7.22 µM (active), respectively.
With `COc1ccc(CCNC(=O)COC(=O)c2cnc(C)cn2)cc1OC`, the EC50 in [12] is 0.17 µM (not active).
For `Cc1ccc(NC(=O)Cn2cccc2)c(C)c1`, the IC50 is > 83.4 µM (inactive) in experiment [13] and > 109 µM (inactive) in experiment [14].
`CC(=O)Nc1sc2c(c1-c1nc3ccccc3s1)CN(C(C)C)C2`: the IC50 in [15] was > 43.8 µM (inactive).
For `COc1ccc(C(=O)NC2=C(c3ccccc3)C(=O)c3ccccc3C2=O)cc1`, the AC50 in experiment [16] was 20.9 µM (active); in [17] it was 40.6 µM (active).
`CCC/C(=N\c1ccc(N)cc1)C1=C(O)C(C(=O)OC)C(C)(C)CC1=O` (centres undefined): the IC50 at Fibrinogen beta chain [18] is > 83.3 µM (inactive); on Fibrinogen beta chain [19], > 83.3 µM (inactive); in experiment [20], 9.5 µM (active).
